Test results published in patent US6613772B1, “Substituted 2-aryl-4-amino-chinazolines, method for the production and use thereof as medicaments” (Aventis Pharma Deutschland GmbH, priority 1997, dated 2003).

What was measured:
[1] = biological target: T1, soluble guanylate cyclase (sGC) (Bos taurus, UniProt P16068+P19687); experiment: Activation of the soluble guanylate cyclase (cGMP enzyme immunoassay); format: biochemical; conditions: test substance 50 μM; sGC isolated from bovine lung; [cGMP] test substance/[cGMP] control (basal activity, solvent); 37° C., 15 to 20 minutes
T1 construct: The sGC employed had been isolated from bovine lung; from tissue; host or cells: bovine lung
T1 sequence (P19687 1-691): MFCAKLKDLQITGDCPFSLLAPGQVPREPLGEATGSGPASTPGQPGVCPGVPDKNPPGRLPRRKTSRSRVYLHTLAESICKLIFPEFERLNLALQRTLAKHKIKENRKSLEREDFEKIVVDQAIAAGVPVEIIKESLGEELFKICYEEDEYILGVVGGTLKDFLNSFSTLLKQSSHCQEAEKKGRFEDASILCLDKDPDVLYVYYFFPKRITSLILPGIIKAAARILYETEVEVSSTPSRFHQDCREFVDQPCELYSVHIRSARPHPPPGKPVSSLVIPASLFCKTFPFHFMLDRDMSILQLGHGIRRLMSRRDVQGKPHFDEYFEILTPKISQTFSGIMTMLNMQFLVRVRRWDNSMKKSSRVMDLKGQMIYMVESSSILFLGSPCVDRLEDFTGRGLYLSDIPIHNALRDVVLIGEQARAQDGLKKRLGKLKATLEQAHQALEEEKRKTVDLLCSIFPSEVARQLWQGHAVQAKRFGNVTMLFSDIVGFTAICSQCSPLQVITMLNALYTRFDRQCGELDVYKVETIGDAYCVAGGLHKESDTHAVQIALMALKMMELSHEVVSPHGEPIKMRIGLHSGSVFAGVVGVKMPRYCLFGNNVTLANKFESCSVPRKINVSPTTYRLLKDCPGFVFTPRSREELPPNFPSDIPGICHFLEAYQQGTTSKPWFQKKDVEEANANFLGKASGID
T1 sequence (P16068 1-619): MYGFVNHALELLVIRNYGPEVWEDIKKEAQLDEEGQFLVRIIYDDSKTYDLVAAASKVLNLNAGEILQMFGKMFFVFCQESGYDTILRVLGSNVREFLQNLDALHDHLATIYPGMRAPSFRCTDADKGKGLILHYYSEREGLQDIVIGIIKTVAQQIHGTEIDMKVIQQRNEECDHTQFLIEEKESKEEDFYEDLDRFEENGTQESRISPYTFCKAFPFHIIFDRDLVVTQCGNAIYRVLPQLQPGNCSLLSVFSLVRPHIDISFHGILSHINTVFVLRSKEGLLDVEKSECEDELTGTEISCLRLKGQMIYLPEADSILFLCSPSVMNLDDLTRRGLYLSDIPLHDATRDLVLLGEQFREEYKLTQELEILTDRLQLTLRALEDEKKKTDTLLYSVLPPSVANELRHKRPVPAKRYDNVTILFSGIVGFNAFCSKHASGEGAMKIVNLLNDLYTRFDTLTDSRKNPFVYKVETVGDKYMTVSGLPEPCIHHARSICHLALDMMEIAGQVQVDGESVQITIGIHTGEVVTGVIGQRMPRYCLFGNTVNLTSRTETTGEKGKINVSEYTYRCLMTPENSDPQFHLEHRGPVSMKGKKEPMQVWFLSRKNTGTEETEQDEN
Experimental: Activation of the Soluble Guanylate Cyclase
The activation of the soluble guanylate cyclase (sGC), which catalyzes the conversion of guanosine triphosphate (GTP) into cyclic guanosine monophosphate (cGMP) and pyrophosphate, by the compounds according to the invention was quantified with the aid of an enzyme immunoassay (EIA) from Amersham. For this, the test substances were first incubated with sGC in microtiter plates and then the amount of resulting cGMP was determined. The sGC employed had been isolated from bovine lung (see Methods in Enzymology, Volume 195, p. 377). The test solutions (100 μl per well) contained 50 mM triethanolamine (TEA) buffer (pH 7.5), 3 mM MgCl2, 3 mM reduced glutathione (GSH), 0.1 mM GTP, 1 mM 3-isobutyl-1-methylxanthine (IBMX), suitably diluted enzyme solution and the test substance or, in the case of the control experiments, solvent. The test substances were dissolved in dimethyl sulfoxide (DMSO) and the solution was diluted with DMSO/water such that the final concentration of test substance in the test solution was 50 μM. The DMSO concentration in the test solution was 5% (v/v). The reaction was started by addition of the sGC. The reaction mix was incubated at 37° C. for 15 to 20 minutes and then stopped by ice-cooling and addition of the stop reagent (50 mM EDTA, pH 8.0). An aliquot of 50 μl was taken and employed for the determination of the cGMP content using the acetylation protocol of the Amersham cGMP EIA kit. The absorption of the samples was measured at 450 nm (reference wavelength 620 nm) in a microtiter plate reader. The cGMP concentration was determined by means of a calibration curve which was obtained under the same experimental conditions. The activation of the sGC by a test substance is indicated as n-fold stimulation of the basal enzyme activity which was found in the control experiments (with solvent instead of test substance calculated according to the formula
n-fold stimulation=[cGMP]test substance/[cGMP]control).

melting point | n-fold Stimulation [1] | Compound
249 °C | 4 n-fold | COc1cc2nc(-c3ccc(Cl)cc3)nc(N3CCN(C)CC3)c2cc1OC.Cl [Example 17, 2-(4-Chlorophenyl)-4-(4-methylpiperazino)-6,7-dimethoxyquinazoline Hydrochloride]
236 °C | 5 n-fold | COc1cc2nc(-c3ccc(Cl)cc3)nc(NCCO)c2cc1OC [Example 20, 2-(4-Chlorophenyl)-4-(2-hydroxyethylamino)-6,7-dimethoxyquinazoline]
291 °C | 3 n-fold | COc1cc2nc(-c3ccc(Cl)cc3)nc(NCC(N)=O)c2cc1OC [Example 25, 2-(4-Chlorophenyl)-4-((aminocarbonylmethyl)amino)-6,7-dimethoxyquinazoline]
187 °C | 5 n-fold | COc1cc2nc(-c3ccc(Cl)cc3)nc(NCCCO)c2cc1OC [Example 32, 2-(4-Chlorophenyl)-4-(3-hydroxypropylamino)-6,7-dimethoxyquinazoline]
188 °C | 3 n-fold | COc1cc2nc(-c3ccc(Cl)cc3)nc(NCCOCCO)c2cc1OC [Example 33, 2-(4-Chlorophenyl)-4-(2-(2-hydroxyethoxy)ethylamino)-6,7-dimethoxyquinazoline]
148 °C | 5 n-fold | COc1cc2nc(-c3ccc(Cl)cc3)nc(N(C)C)c2cc1OC [Example 35, 2-(4-Chlorophenyl)-4-dimethylamino-6,7-dimethoxyquinazoline]
178 °C | 5 n-fold | COCCNc1nc(-c2ccc(Cl)cc2)nc2cc(OC)c(OC)cc12 [Example 36, 2-(4-Chlorophenyl)-4-(2-methoxyethylamino)-6,7-dimethoxyquinazoline]
231 °C | 6 n-fold | COc1cc2nc(-c3ccc(Cl)cc3)nc(NC3CCCC3)c2cc1OC [Example 92, 2-(4-Chlorophenyl)-4-cyclopentylamino-6,7-dimethoxyquinazoline]
261 °C | 14 n-fold | COc1cc2nc(-c3ccc(Cl)cc3)nc(N[C@H]3CC[C@H](O)CC3)c2cc1OC [Example 93, 2-(4-Chlorophenyl)-4-(trans-4-hydroxycyclohexylamino)-6,7-dimethoxyquinazoline]
199 °C | 13 n-fold | COc1cc2c(N[C@H]3CC[C@H](O)CC3)nc(-c3ccc(Cl)cc3)nc2c(OC)c1OC [Example 94, 2-(4-Chlorophenyl)-4-(trans-4-hydroxycyclohexylamino)-6,7,8-trimethoxyquinazoline]
243 °C | 16 n-fold | COc1cc2nc(-c3ccc(C)cc3)nc(N[C@H]3CC[C@H](O)CC3)c2cc1OC [Example 96, 2-(4-Methylphenyl)-4-(trans-4-hydroxycyclohexylamino)-6,7-dimethoxyquinazoline]
101 °C | 8 n-fold | COc1cc2nc(-c3ccc(C)cc3)nc(NC3CCCC3)c2cc1OC [Example 98, 2-(4-Methylphenyl)-4-cyclopentylamino-6,7-dimethoxyquinazoline]

Continued, compound first:

Compound | melting point | n-fold Stimulation [1]
COc1cc2c(NCCCN3CCOCC3)nc(-c3ccc(Cl)cc3)nc2c(OC)c1OC.Cl [Example 14, 2-(4-Chlorophenyl)-4-(3-morpholinopropylamino)-6,7,8-trimethoxyquinazoline Hydrochloride] | 190 °C | 3 n-fold
COc1cc2nc(-c3ccc(Cl)cc3)nc(N3CCN(CCO)CC3)c2cc1OC [Example 23, 2-(4-Chlorophenyl)-4-(4-(2-hydroxyethyl)piperazino)-6,7-dimethoxyquinazoline] | 163 °C | 4 n-fold
COc1cc2nc(-c3ccc(Cl)cc3)nc(N3CCN(CC(=O)NC(C)C)CC3)c2cc1OC [Example 24, 2-(4-Chlorophenyl)-4-(4-(isopropylaminocarbonylmethyl)piperazino)-6,7-dimethoxyquinazoline] | 187 °C | 3 n-fold
COc1cc2nc(-c3ccc(Cl)cc3)nc(NCc3cccnc3)c2cc1OC [Example 28, 2-(4-Chlorophenyl)-4-((3-pyridylmethyl)amino)-6,7-dimethoxyquinazoline] | 232 °C | 5 n-fold
COc1cc2nc(-c3ccc(C)cc3)nc(NCCO)c2cc1OC [Example 37, 2-(4-Methylphenyl)-4-(2-hydroxyethylamino)-6,7-dimethoxyquinazoline] | 217 °C | 4 n-fold
COc1cc2nc(-c3ccc(C)cc3)nc(NCc3cccnc3)c2cc1OC [Example 38, 2-(4-Methylphenyl)-4-((3-pyridylmethyl)amino)-6,7-dimethoxyquinazoline] | 239 °C | 7 n-fold
COc1cc2nc(-c3ccc(C)cc3)nc(N3CCN(C)CC3)c2cc1OC [Example 39, 2-(4-Methylphenyl)-4-(4-methylpiperazino)-6,7-dimethoxyquinazoline] | 166 °C | 3 n-fold
COc1cc2nc(-c3ccc(C(F)(F)F)cc3)nc(NCCO)c2cc1OC [Example 42, 2-(4-Trifluoromethylphenyl)-4-(2-hydroxyethylamino)-6,7-dimethoxyquinazoline] | 210 °C | 3 n-fold
COc1cc2nc(-c3ccc(C(F)(F)F)cc3)nc(NCc3cccnc3)c2cc1OC [Example 44, 2-(4-Trifluoromethylphenyl)-4-((3-pyridylmethyl)amino)-6,7-dimethoxyquinazoline] | 238 °C | 4 n-fold
COc1cc2c(N3CCC(C(N)=O)CC3)nc(-c3ccc(Cl)cc3)nc2c(OC)c1OC [Example 67, 2-(4-Chlorophenyl)-4-(4-aminocarbonylpiperidino)-6,7,8-trimethoxyquinazoline] | 215 °C | 7 n-fold
COc1cc2nc(-c3ccc(C)cc3)nc(N3CCN(c4ccccn4)CC3)c2cc1OC [Example 79, 2-(4-Methylphenyl)-4-(4-(2-pyridyl)piperazino)-6,7-dimethoxyquinazoline] | 191 °C | 6 n-fold
